Columns and labels:
[1] = Measurement of adsorption amount of naphthol yellow S; assay type: physicochemical; details: 1.0 g powder in 500 mL NYS aqueous solution 100 ppm, 30° C., 1 hour
Description: [Measurement of Adsorption Amount of Naphthol Yellow S]
1.0 g of a powder sample was added to 500 mL of an aqueous solution of naphthol yellow S (NYS) (concentration 100 ppm). The mixture was stirred at 30° C. for 1 hour and then filtered to obtain a filtrate. The concentration of NYS in the filtrate was measured with a spectrophotometer and the adsorption amount of the sample was obtained.

[2] = Antacid power, measured according to the pharmacopoeia of Japan; assay type: physicochemical
[3] = system: water immersion restraint stress ulcer; assay: Influence on rat water immersion restraint stress ulcer; assay type: in vivo, Wister rats; details: oral, 30 minutes before stress, 7 hours stress; for Length of gastric mucosa impairment: control 14.7 mm
Source text: [Influence on Rat Water Immersion Restraint Stress Ulcer]
The powders obtained in Examples 1, 2 and 3, a mixed powder containing the powder obtained in Example 2 and basic zinc carbonate (Zn=58%), the powders obtained in Comparative Examples 1 and 2, lansoprazole as a proton pump inhibitor and sucralfate, which is most highly evaluated as a gastric mucosa protective agent, were used as test specimens. These test specimens were examined for effect on water immersion restraint stress ulcer, which is an acute ulcer model.
Eight Wister rats as a group were preliminarily reared for a few days. The rats were fasted for 24 hours. Then, the rats were placed in a stress cage according to the method of Takagi et al. (Jap, J, Pharacol, 18:9, 1968). The rats were immersed up to xiphoid process parts in a water tank having a temperature of 23° C. and the rats were subjected to stress for 7 hours. Then, their stomachs were taken out under ether anesthesia. About 12 mL of 2% formalin physiological saline solution was injected into each stomach, to fix the stomach. Then, each stomach was cut out along a curvatura ventriculi major side. The length (mm) of mucosa ulcer at a glandular stomach portion was measured.
As to oral administration of the test specimens, 5 mL/kg (rat weight) of a liquid containing a test specimen was administered 30 minutes before the load of the stress. In Control, the same amount of water was administered.

Molecule	NYS adsorption amount [1] [mg/g]	Antacid power [2] [mL/g]	Inhibition rate ([3]; dosage 40 mg/kg) [%]	Length of gastric mucosa impairment ([3]; dosage 40 mg/kg) [mm]	Inhibition rate ([3]; dosage 500 mg/kg) [%]	Length of gastric mucosa impairment ([3]; dosage 500 mg/kg) [mm]
Cc1c(OCC(F)(F)F)ccnc1C[S+]([O-])c1nc2ccccc2[nH]1 (centres unmarked) [Lansoprazole, lansoprazole]	0	0	78	3.2		
sucralfate	0.60	168			71	4.3
